According to ChEMBL document CHEMBL4706512, “Design, synthesis and antitumor activity of novel thiophene-pyrimidine derivatives as EGFR inhibitors overcoming T790M and L858R/T790M mutations” (Eur J Med Chem, 2020):
Activity calls are given as the source filed them. The rule behind the calls is not given here.

Columns and labels:
[1] = test system: A-431; assay: Induction of apoptosis in human A-431 cells assessed as early apoptotic cells at 4 uM measured after 48 hrs by Annexin V-FITC staining based flow cytometry (reference value: 2.1%); format: functional
[2] = test system: L02; assay: Cytotoxicity against human L02 cells assessed as inhibition of cell proliferation measured after 72 hrs by MTT assay; format: cell-based; conditions: L02, 72 h
[3] = test system: MCF7; assay: Antiproliferative activity against human MCF7 cells assessed as inhibition of cell proliferation measured after 72 hrs by MTT assay; format: functional, cell-based; conditions: MCF7, 72 h
[4] = test system: A-431; assay: Antiproliferative activity against human A-431 cells assessed as inhibition of cell proliferation at 0.33 uM measured after 6 hrs by Acridine orange staining based fluorescence microscopy; format: functional
[5] = test system: A-431; assay: Induction of apoptosis in human A-431 cells assessed as viable cells at 0.2 uM measured after 48 hrs by Annexin V-FITC staining based flow cytometry (reference value: 95.67%); format: functional; conditions: read-out: Activity
[6] = test system: NCI-H1975; assay: Antiproliferative activity against human NCI-H1975 cells harboring EGFR T790M/L858R double mutant assessed as inhibition of cell viability at 10 uM measured after 72 hrs by MTT assay; format: functional
[7] = Inhibition of EGFR T790M mutant (unknown origin) using FAM-labelled peptide as substrate incubated for 10 mins in presence of ATP measured by mobility shift assay; set-up: species or system Homo sapiens
[8] = species: Homo sapiens; assay: Inhibition of EGFR T790M/L858R double mutant (unknown origin) using FAM-labelled peptide as substrate at 1 uM incubated for 10 mins in presence of ATP measured by mobility shift assay
[9] = test system: A-431; assay: Induction of apoptosis in human A-431 cells assessed as early apoptotic cells at 0.2 uM measured after 48 hrs by Annexin V-FITC staining based flow cytometry (reference value: 2.1%); format: functional
[10] = species: Homo sapiens; assay: Selectivity ratio of IC50 for wild type EGFR (unknown origin) to IC50 for EGFR T790M/L858R double mutant (unknown origin) measured by mobility shift assay
[11] = test system: A-431; assay: Induction of apoptosis in human A-431 cells assessed as necrotic cells at 4 uM measured after 48 hrs by Annexin V-FITC staining based flow cytometry (reference value: 0.21%); format: functional
[12] = target: T1, Epidermal growth factor receptor (Homo sapiens, UniProt P00533); assay: Inhibition of wild type EGFR (unknown origin) using FAM-labelled peptide as substrate incubated for 10 mins in presence of ATP measured by mobility shift assay
T1 sequence (P00533 whole entry): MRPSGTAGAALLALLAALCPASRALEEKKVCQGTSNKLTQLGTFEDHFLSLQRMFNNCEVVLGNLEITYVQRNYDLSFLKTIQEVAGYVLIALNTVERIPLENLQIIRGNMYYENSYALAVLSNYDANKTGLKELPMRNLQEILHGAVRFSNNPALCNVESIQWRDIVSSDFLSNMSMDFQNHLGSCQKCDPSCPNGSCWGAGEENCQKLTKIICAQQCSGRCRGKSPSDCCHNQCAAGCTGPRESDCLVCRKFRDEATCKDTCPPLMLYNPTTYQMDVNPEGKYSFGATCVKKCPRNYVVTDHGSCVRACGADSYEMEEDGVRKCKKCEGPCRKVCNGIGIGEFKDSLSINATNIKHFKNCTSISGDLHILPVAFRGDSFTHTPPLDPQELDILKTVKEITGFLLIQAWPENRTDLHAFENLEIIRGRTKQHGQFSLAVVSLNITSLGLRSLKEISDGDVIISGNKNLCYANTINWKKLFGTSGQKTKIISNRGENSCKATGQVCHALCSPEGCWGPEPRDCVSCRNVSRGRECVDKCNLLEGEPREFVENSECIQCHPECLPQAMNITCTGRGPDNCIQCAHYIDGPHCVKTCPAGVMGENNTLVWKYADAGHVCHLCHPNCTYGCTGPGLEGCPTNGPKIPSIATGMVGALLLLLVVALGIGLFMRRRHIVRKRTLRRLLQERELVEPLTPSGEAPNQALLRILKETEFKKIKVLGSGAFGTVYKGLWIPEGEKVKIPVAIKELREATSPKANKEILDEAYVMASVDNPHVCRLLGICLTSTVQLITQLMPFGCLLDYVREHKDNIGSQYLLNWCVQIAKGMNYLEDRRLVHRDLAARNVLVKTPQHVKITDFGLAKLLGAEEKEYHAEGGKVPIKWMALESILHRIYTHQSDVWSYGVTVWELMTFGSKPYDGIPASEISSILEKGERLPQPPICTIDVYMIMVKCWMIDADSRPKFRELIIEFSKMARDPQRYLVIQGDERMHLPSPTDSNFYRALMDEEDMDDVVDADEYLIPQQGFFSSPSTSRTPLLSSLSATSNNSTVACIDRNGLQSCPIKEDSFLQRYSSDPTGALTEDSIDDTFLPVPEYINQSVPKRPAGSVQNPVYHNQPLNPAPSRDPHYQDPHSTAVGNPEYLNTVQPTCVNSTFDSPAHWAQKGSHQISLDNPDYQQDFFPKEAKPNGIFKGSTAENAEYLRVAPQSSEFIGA

[13] = test system: NCI-H1975; assay: Antiproliferative activity against human NCI-H1975 cells harboring EGFR T790M/L858R double mutant assessed as inhibition of cell viability measured after 72 hrs by MTT assay; format: functional, cell-based; conditions: NCI-H1975, 72 h
[14] = test system: HeLa; assay: Antiproliferative activity against human HeLa cells assessed as inhibition of cell proliferation measured after 72 hrs by MTT assay; format: functional, cell-based
[15] = test system: A-431; assay: Induction of cell morphological changes in human A-431 cells assessed as chromatin contraction with sharp cell edge at 0.33 uM measured after 6 hrs by Acridine orange staining based fluorescence microscopy; format: functional
[16] = species: Homo sapiens; assay: Inhibition of EGFR T790M mutant (unknown origin) using FAM-labelled peptide as substrate at 1 uM incubated for 10 mins in presence of ATP measured by mobility shift assay
[17] = test system: A-431; assay: Induction of apoptosis in human A-431 cells assessed as necrotic cells at 0.2 uM measured after 48 hrs by Annexin V-FITC staining based flow cytometry (reference value: 0.21%); format: functional
[18] = test system: A-431; assay: Induction of apoptosis in human A-431 cells assessed as late apoptotic cells at 0.2 uM measured after 48 hrs by Annexin V-FITC staining based flow cytometry (reference value: 2.02%); format: functional
[19] = species: Homo sapiens; assay: Selectivity ratio of IC50 for wild type EGFR (unknown origin) to IC50 for EGFR T790M mutant (unknown origin) measured by mobility shift assay
[20] = Inhibition of EGFR T790M/L858R double mutant (unknown origin) using FAM-labelled peptide as substrate incubated for 10 mins in presence of ATP measured by mobility shift assay; set-up: species or system Homo sapiens
[21] = test system: A-431; assay: Induction of apoptosis in human A-431 cells assessed as late apoptotic cells at 8 uM measured after 48 hrs by Annexin V-FITC staining based flow cytometry (reference value: 2.02%); format: functional
[22] = test system: A-431; assay: Induction of apoptosis in human A-431 cells assessed as viable cells at 4 uM measured after 48 hrs by Annexin V-FITC staining based flow cytometry (reference value: 95.67%); format: functional; conditions: read-out: Activity
[23] = target: Hepatocyte growth factor receptor (Homo sapiens) (UniProt P08581); assay: Inhibition of c-MET (unknown origin) using FAM-labelled peptide as substrate at 1 uM incubated for 10 mins in presence of ATP measured by mobility shift assay
Sequence of Hepatocyte growth factor receptor (Homo sapiens) (P08581 whole entry): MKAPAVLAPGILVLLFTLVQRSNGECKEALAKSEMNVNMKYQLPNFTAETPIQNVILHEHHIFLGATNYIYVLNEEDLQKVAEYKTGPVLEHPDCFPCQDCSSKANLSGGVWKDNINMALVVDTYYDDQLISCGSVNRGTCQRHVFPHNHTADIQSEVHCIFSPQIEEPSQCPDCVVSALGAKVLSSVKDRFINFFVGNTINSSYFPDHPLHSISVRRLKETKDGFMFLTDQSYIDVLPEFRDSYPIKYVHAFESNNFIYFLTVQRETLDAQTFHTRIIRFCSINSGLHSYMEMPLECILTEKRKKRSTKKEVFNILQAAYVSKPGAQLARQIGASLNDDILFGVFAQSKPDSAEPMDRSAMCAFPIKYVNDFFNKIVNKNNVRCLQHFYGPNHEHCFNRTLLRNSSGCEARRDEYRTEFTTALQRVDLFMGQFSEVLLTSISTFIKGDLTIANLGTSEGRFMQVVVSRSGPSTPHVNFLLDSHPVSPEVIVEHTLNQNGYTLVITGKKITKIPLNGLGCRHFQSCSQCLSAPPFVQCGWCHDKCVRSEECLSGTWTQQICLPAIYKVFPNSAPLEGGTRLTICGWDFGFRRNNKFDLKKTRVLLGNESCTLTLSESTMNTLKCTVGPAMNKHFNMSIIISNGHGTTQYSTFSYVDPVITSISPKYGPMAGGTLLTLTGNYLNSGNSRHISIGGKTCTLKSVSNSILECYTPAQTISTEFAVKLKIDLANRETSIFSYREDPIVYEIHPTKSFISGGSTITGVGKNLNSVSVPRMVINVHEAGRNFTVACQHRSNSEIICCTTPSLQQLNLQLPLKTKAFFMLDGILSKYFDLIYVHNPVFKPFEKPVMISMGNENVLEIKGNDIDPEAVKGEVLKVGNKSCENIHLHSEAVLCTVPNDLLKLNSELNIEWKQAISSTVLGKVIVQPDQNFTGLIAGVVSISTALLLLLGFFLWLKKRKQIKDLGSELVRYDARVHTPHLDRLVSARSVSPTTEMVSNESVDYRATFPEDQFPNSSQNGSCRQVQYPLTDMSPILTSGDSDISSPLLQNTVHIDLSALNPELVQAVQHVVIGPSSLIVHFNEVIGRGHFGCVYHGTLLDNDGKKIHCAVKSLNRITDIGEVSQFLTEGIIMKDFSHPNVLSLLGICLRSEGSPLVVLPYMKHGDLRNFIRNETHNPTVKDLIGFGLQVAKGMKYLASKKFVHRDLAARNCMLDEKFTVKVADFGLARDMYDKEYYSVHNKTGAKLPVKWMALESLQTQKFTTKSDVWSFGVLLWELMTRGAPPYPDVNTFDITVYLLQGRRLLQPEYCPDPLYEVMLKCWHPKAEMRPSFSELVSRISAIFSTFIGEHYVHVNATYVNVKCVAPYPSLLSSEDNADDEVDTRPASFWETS

[24] = test system: A-431; assay: Induction of apoptosis in human A-431 cells assessed as late apoptotic cells at 4 uM measured after 48 hrs by Annexin V-FITC staining based flow cytometry (reference value: 2.02%); format: functional
[25] = target: T1, Epidermal growth factor receptor; assay: Inhibition of wild type EGFR (unknown origin) using FAM-labelled peptide as substrate at 1 uM incubated for 10 mins in presence of ATP measured by mobility shift assay
[26] = test system: A-431; assay: Antiproliferative activity against human A-431 cells assessed as inhibition of cell proliferation measured after 72 hrs by MTT assay; format: functional, cell-based; conditions: A-431, 72 h
[27] = target: Serine/threonine-protein kinase mTOR (Homo sapiens) (UniProt P42345); assay: Inhibition of mTOR (unknown origin) using FAM-labelled peptide as substrate at 1 uM incubated for 10 mins in presence of ATP measured by mobility shift assay
[28] = species: Homo sapiens; assay: Inhibition of PI3K (unknown origin) using FAM-labelled peptide as substrate at 1 uM incubated for 10 mins in presence of ATP measured by mobility shift assay
[29] = test system: A-431; assay: Induction of apoptosis in human A-431 cells assessed as early apoptotic cells at 8 uM measured after 48 hrs by Annexin V-FITC staining based flow cytometry (reference value: 2.1%); format: functional
[30] = target: Vascular endothelial growth factor receptor 2 (Homo sapiens) (UniProt P35968); assay: Inhibition of KDR (unknown origin) using FAM-labelled peptide as substrate at 1 uM incubated for 10 mins in presence of ATP measured by mobility shift assay
Sequence of Vascular endothelial growth factor receptor 2 (Homo sapiens) (P35968 whole entry): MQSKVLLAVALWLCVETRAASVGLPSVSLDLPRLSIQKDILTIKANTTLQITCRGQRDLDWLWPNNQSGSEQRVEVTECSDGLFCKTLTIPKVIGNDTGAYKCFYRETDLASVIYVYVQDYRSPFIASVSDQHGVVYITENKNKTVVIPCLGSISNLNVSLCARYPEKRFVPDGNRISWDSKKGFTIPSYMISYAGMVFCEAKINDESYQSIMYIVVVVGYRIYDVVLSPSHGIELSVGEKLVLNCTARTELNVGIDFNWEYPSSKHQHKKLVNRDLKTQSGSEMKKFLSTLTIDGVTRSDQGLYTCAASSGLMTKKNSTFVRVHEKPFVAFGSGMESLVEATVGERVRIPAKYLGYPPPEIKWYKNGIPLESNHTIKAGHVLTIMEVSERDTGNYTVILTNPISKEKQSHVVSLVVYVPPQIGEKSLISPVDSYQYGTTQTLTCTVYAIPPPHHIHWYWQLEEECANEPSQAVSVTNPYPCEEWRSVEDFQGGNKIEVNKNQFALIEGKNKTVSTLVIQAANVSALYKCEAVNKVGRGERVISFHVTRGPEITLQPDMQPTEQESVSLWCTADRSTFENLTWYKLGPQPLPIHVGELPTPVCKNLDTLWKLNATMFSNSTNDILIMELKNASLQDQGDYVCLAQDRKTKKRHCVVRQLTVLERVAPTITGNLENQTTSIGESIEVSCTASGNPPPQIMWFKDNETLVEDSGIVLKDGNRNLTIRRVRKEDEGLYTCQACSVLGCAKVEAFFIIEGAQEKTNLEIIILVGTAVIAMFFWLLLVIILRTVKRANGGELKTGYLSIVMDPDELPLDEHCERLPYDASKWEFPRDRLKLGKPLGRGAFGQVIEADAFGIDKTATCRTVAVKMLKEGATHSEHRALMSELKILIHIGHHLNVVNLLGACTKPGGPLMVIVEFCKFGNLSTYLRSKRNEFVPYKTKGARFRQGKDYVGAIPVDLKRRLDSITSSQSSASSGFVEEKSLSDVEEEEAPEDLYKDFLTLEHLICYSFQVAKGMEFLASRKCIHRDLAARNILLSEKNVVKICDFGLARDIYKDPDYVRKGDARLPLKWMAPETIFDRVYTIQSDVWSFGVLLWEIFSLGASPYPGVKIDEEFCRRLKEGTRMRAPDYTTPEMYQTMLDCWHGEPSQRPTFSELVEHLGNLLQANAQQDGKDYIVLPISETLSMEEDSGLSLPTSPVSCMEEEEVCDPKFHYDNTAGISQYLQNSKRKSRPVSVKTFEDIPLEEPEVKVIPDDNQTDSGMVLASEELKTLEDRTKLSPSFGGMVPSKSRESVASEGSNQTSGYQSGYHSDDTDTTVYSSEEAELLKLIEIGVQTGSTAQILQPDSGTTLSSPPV

[31] = test system: A-431; assay: Induction of apoptosis in human A-431 cells assessed as viable cells at 8 uM measured after 48 hrs by Annexin V-FITC staining based flow cytometry (reference value: 95.67%); format: functional; conditions: read-out: Activity
[32] = test system: A549; assay: Antiproliferative activity against human A549 cells assessed as inhibition of cell proliferation measured after 72 hrs by MTT assay; format: functional, cell-based; conditions: A549, 72 h
[33] = test system: A-431; assay: Induction of apoptosis in human A-431 cells assessed as necrotic cells at 8 uM measured after 48 hrs by Annexin V-FITC staining based flow cytometry (reference value: 0.21%); format: functional
[34] = test system: NCI-H1975; assay: Antiproliferative activity against human NCI-H1975 cells harboring EGFR T790M/L858R double mutant assessed as inhibition of cell viability at 1 uM measured after 72 hrs by MTT assay; format: functional

SMILES: C=CC(=O)Nc1cccc(Oc2nc(Nc3cccc(C#N)c3)nc3ccsc23)c1
- Activity [1]: 4.87%
- IC50 [2]: > 50 µM
- IC50 [3]: 19 µM
- Activity [4]: Active
- viability at 0.2 µM [5]: 83.4%
- inhibition at 10 µM [6]: 79.5%
- IC50 [7]: 0.065 µM
- inhibition [8]: 104%
- Activity [9]: 3.29%
- Selectivity ratio [10]: > 73
- Activity [11]: 1.33%
- IC50 [12]: > 1 µM
- IC50 [13]: 0.699 µM
- IC50 [14]: 6.39 µM
- Activity [15]: Active
- inhibition [16]: 95.9%
- Activity [17]: 0.63%
- Activity [18]: 12.66%
- Selectivity ratio [19]: > 15
- IC50 [20]: 0.0136 µM
- Activity [21]: 17.17%
- viability at 4 µM [22]: 77.4%
- inhibition [23]: 6%
- Activity [24]: 16.41%
- inhibition [25]: 23.5%
- IC50 [26]: 3.79 µM
- inhibition [27]: 9.3%
- inhibition [28]: 31.5%
- Activity [29]: 3.54%
- inhibition [30]: 1.1%
- viability at 8 µM [31]: 78.3%
- IC50 [32]: 4.34 µM
- Activity [33]: 0.97%
- inhibition at 1 µM [34]: 44.3%
